Laboratory results taken from patent US9518008B2, “(1S,2S,3S,4R)-3-[(1S)-1-acetylamino-2-ethyl-butyl]-4-uanidino-2-hydroxyl-cyclopentyl-1-carboxylic acid hydrates pharmaceutical uses thereof” (Institute of Pharmacology and Toxicology Academy of …, priority 2007, dated 2016).
Where two headings read alike, the source gives them in different places.

How the values were obtained:
[1] = tested on: Influenza B virus (B/Jing Fang/76/98) neuraminidase; test: Neuraminidase inhibition by fluorimetry with 4-MUNANA; type: biochemical
[2] = Influence of different acidic conditions (pH) on stability of trihydrate solution, sterilization; type: physicochemical; conditions: conclusion from sterilization and 60° C. data
Method: The resulting solutions were high pressure steam sterilized at 115° C. for 30 minutes. Then, the solutions were sampled for the determination of change in pH value and change in amount of relevant substances.

[3] = Dissolution behavior in water; type: physicochemical; conditions: for dissolution behavior: 100 ml: 300 mg
Method: (1) water for injection (room temperature)
(2) water for injection (80° C.)
(3) water for injection (room temperature, adjusted to be acidic with hydrochloric acid)
(4) water for injection (adjusted to be basic with disodium hydrogen phosphate)

[4] = biological target: Influenza A virus (H3N2) neuraminidase (Influenza A virus, UniProt P03482); test: Neuraminidase inhibition by fluorimetry with 4-MUNANA; type: biochemical
Chain of Influenza A virus (H3N2) neuraminidase (P03482 whole entry, looked up): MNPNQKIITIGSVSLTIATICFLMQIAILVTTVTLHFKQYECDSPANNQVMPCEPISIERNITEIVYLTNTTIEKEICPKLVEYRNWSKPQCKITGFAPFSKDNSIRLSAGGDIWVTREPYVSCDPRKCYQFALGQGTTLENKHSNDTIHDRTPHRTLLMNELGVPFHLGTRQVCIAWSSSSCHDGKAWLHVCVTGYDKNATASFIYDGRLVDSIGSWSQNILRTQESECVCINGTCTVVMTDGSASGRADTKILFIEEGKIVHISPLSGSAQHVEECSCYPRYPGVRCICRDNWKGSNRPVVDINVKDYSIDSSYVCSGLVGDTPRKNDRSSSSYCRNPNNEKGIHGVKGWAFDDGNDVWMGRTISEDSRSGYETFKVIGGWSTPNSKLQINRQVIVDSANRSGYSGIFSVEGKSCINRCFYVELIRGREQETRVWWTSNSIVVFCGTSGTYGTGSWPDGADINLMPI

[5] = tested on: influenza virus strain FM1 (H1N1); test: Anti-influenza activity in infected mice (survival); type: in vivo, mice (BALB/C); conditions: 5 times, 14th day after infection
Method: A virus drip is prepared typically by including 500 pfu (plaque forming unit) of mice-compliance influenza virus strain in 50 μl phosphate buffer (containing 0.42% bovine serum albumin), and then dropped into nasal cavity of mice to infect them (BALB/C, female, aged 5-6 weeks, weighted 20 g). The compound of the invention is suspended in physiological saline to obtain different doses, typically from 2.5 mg/kg to 40 mg/kg, and is administered to the mice at different time before and after the viral infection, typically administered by intraperitoneal injection for 5 times, i.e., 1 hour, and 2, 3, 4, 5 days after the viral infection. The assay is performed by using 8 or 12, typically 10 mice. The result is expressed by the ratio of the number of survival mice the 14th day after the viral infection to the number of the mice in assay.
A solution was prepared by including 500 pfu (plaque forming unit) of mice-compliance influenza virus strain FM1 (H1N1) in 50 μl phosphate buffer (containing 0.42% bovine serum albumin), and then dropped into nasal cavity of mice (BALB/C, female, aged 5-6 weeks, weighted 20 g) to infect them with an infective dose of 23.7LD50. The compound of the invention was suspended in physiological saline, and was administered in doses of 2.5 mg/kg, 5 mg/kg, 10 mg/kg, 20 mg/kg to the mice by intraperitoneal injection for 5 times, i.e., 1 hour, and 2, 3, 4, 5 days after the viral infection, respectively. The assay was performed by 10 mice. The result was expressed by the ratio of the number of survival mice the 14th day after the viral infection to the number of the mice in assay.

[6] = Accelerated stability test of the hydrates; conditions: for Character / Content / Change in weight: 40° C., 75% RH
Method: The stability of the compound of the invention can be tested by a standard stability test method, such as the methods specified in Guidelines for Stability Testing of Drug Substances involved in Appendix XIX C of Chinese Pharmacopoeia (2005 edition). For example, the stability of the compound of the general formula (I) can be tested by an accelerated stability test method, e.g., the stability of the compound of the general formula (I), at 0, 1, 2, 3, 6 months, is tested respectively under the conditions: 40° C., 75% relative humidity; 40° C., 92.5% relative humidity; and 80° C. The change in principal agent and relevant substances can be analyzed by thin layer chromatography, high performance liquid chromatography, and etc.
The device used should be capable of controlling temperature with a precise of ±2° C., and relative humidity with a precise of ±5%, and could monitor true temperature and humidity. The products were sampled respectively at the end of the 1, 2, 3 and 6 months during the test, and determined in aspect of important items relating to stability investigation.

[7] = Determination of hygroscopicity (high humidity test); type: physicochemical
Method: The hygroscopicity of the compound of the invention can be tested by a standard hygroscopicity test method. For example, the compound is stored in a sealed vessel at room temperature at a relative humidity of 92.5%, 80% or 75%, and the change in moisture content of the compound is tested by sampling at regular intervals.
At the 5th and 10th days, the products were sampled and determined in aspect of important items relating to stability investigation. […] If the weight gain of a product due to moisture absorption was more than 5%, the product was further experimented according to the same method under a relative humidity of 75%±5%. If the weight gain of a product due to moisture absorption was less than 5%, and other items thereof under investigation met the relevant requirements, no more experiment was needed. The humidity-constant condition could be achieved by placing a saturated saline solution at the lower part of a sealed vessel, e.g., a desiccator, and a NaCl saturated solution (15.5-60° C., a relative humidity of 75%±1%) or a KNO3 saturated solution (25° C., a relative humidity of 92.5%) may be selected according to the requirement of different relative humidity.

[8] = Con. 0.01 nM, virus concentration NA 1/40
[9] = Con. 0.1 nM, virus concentration NA 1/40
[10] = Con. 1 nM, virus concentration NA 1/40
[11] = Con. 10 nM, virus concentration NA 1/40
[12] = Con. 100 nM, virus concentration NA 1/40
[13] = virus concentration NA 1/40, read-out: IC50
[14] = Relative humidity 92.5%, 25° C.

In the case of CCC(CC)[C@H](NC(C)=O)[C@H]1[C@H](O)[C@@H](C(=O)O)C[C@H]1NC(=N)N.O.O.O [Trihydrate, (1S,2S,3S,4R)-3-[(1S)-1-acetylamino-2-ethyl-butyl]-4-guanidino-2-hydroxy-cyclopentyl-1-carboxylic acid trihydrate], the “inhibitory rate IR” value ([1]; Con. 0.01 nM, virus concentration NA 1/20) is reported as 8.81%, the “inhibitory rate IR” value [1, 8] is reported as 7.92% and the “inhibitory rate IR” value ([1]; Con. 0.1 nM, virus concentration NA 1/20) is reported as 15.31%. For the same molecule, the “inhibitory rate IR” value [1, 9] was 19.17%, the “inhibitory rate IR” value ([1]; Con. 1 nM, virus concentration NA 1/20) was 39.11% and the “inhibitory rate IR” value [1, 10] was 44.84%. The “inhibitory rate IR” value ([1]; Con. 10 nM, virus concentration NA 1/20) was 82.01%, the “inhibitory rate IR” value [1, 11] was 81.45% and the “inhibitory rate IR” value ([1]; Con. 100 nM, virus concentration NA 1/20) was 97.78%. The “inhibitory rate IR” value [1, 12] was 96.71%, the IC50 ([1]; average of NA 1/20 and NA 1/40, read-out: Average IC50) was 1.07 nM and the IC50 ([1]; virus concentration NA 1/20, read-out: IC50) was 1.14 nM. For the same molecule, the IC50 [1, 13] was 0.998 nM, the “optimum pH value (stability in solution)” value [2] was 4.5-6.5 and the dissolution behavior ([3]; (1) water for injection (room temperature)) was “slowly dissolved”. For the same molecule, the dissolution behavior ([3]; (2) water for injection (80° C.)) was “rapidly dissolved”, the dissolution behavior ([3]; (3) water for injection, room temperature, acidic with hydrochloric acid) was “relatively easily dissolved” and the “dissolution behavior, condition (3) compared with (4)” value ([3]; (4) water for injection adjusted to be basic with disodium hydrogen phosphate) was “more easily dissolved under acidic condition”. For the same molecule, the “inhibitory rate IR” value [4, 8] was 0.63%, the “inhibitory rate IR” value ([4]; Con. 0.01 nM, virus concentration NA 1/80) was 12.33% and the “inhibitory rate IR” value [4, 9] was 13.23%. The “inhibitory rate IR” value ([4]; Con. 0.1 nM, virus concentration NA 1/80) was 24.04%, the “inhibitory rate IR” value [4, 10] was 60.99% and the “inhibitory rate IR” value ([4]; Con. 1 nM, virus concentration NA 1/80) was 63.20%. The “inhibitory rate IR” value [4, 11] was 99.25%, the “inhibitory rate IR” value ([4]; Con. 10 nM, virus concentration NA 1/80) was 98.80% and the “inhibitory rate IR” value [4, 12] was 100.43%. For the same molecule, the “inhibitory rate IR” value ([4]; Con. 100 nM, virus concentration NA 1/80) was 99.89%, the IC50 ([4]; average of NA 1/40 and NA 1/80, read-out: Average IC50) was 0.542 nM and the IC50 [4, 13] was 0.673 nM. For the same molecule, the IC50 ([4]; virus concentration NA 1/80, read-out: IC50) was 0.411 nM, the Survival number ([5]; 2.5 mg/kg intraperitoneal) was 6/10 and the Survival rate ([5]; 2.5 mg/kg intraperitoneal) was 60%. For the same molecule, the Survival number ([5]; 5.0 mg/kg intraperitoneal) was 7/10, the Survival rate ([5]; 5.0 mg/kg intraperitoneal) was 70% and the Survival number ([5]; 10 mg/kg intraperitoneal) was 8/10. The Survival rate ([5]; 10 mg/kg intraperitoneal) was 80%, the Survival number ([5]; 20 mg/kg intraperitoneal) was 9/10 and the Survival rate ([5]; 20 mg/kg intraperitoneal) was 90%. The Character ([6]; 0 month) was “White solid”, the Content ([6]; 0 month) was 99.90% and the Change in weight ([6]; 1 month) was “+0.01%”. The Character ([6]; 1 month) was “White solid”, the Content ([6]; 1 month) was 99.95% and the Change in weight ([6]; 2 months) was −0.02%. For the same molecule, the Character ([6]; 2 months) was “White solid”, the Content ([6]; 2 months) was 99.97% and the Change in weight ([6]; 3 months) was “+0.01%”. The Character ([6]; 3 months) was “White solid”, the Content ([6]; 3 months) was 99.96% and the Change in weight ([6]; 6 months) was “+0.01%”. The Character ([6]; 6 months) was “White solid”, the Content ([6]; 6 months) was 99.91% and the “stability” value ([6]; stability test of 1, 2, 3, 6 months) was “good stability”. The “Hygroscopicity at the 5th day” value ([7]; Relative humidity 75%) was 1.68%, the “Hygroscopicity at the 10th day” value ([7]; Relative humidity 75%) was 1.83% and the “Hygroscopicity at the 5th day” value [7, 14] was 2.11%. The “Hygroscopicity at the 10th day” value [7, 14] was 2.24% and the weight gain ([7]; ten-day observation test, sealed vessel, room temperature, high relative humidity) was “about 2.24%”.
